What was measured:
Mus musculus [1] = assay: Concentration required to protect 50 % of mice against hind limb extensor component in MES test when administered perorally; format: functional; conditions: Hindlimb, po
Mus musculus [2] = assay: Concentration required to protect 50 % of mice against hind limb extensor component in MES test when administered intravenously; format: functional; conditions: Hindlimb, iv
Rattus norvegicus [3] = assay: Compound was evaluated for the anticonvulsant activity by testing its ability to protect against maximal electroshock- induced seizures in rats after peroral administration (po); format: functional
Rattus norvegicus [4] = species: Rattus norvegicus; assay: (§1) Compound was evaluated for the anticonvulsant activity in rats.; format: organism-based; conditions: in vivo
[5] = as §1; format: organism-based; conditions: rat, in vivo
Rattus norvegicus [6] = assay: Compound was evaluated for the anticonvulsant activity by testing its ability to protect against maximal electroshock- induced seizures in rats; Intravenous administration (iv); format: functional
Mus musculus [7] = assay: Concentration required to protect 50 % of mice against hind limb extensor component in MES test when administered intraperitoneally; format: functional; conditions: Hindlimb, ip
Rattus norvegicus [8] = assay: Compound was evaluated for the anticonvulsant activity by testing its ability to protect against maximal electroshock- induced seizures in rats; Intraperitoneal administration (ip); format: functional
Rattus norvegicus [9] = assay: Compound was evaluated for the anticonvulsant activity by testing its ability to protect against maximal electroshock- induced seizures in rats; Peroral administration (po); format: functional

| SMILES | ED50 (Mus musculus [1]) [mg/kg] | ED50 (Mus musculus [2]) [mg/kg] | ED50 (Rattus norvegicus [3]) [mg/kg] | LD50 (Rattus norvegicus [4]) [mg/kg] | LD50 [5] [mg/kg] | ED50 (Rattus norvegicus [6]) [mg/kg] | ED50 (Mus musculus [7]) [mg/kg] | ED50 (Rattus norvegicus [8]) [mg/kg] | ED50 (Rattus norvegicus [9]) [mg/kg] |
| --- | --- | --- | --- | --- | --- | --- | --- | --- | --- |
| CNc1ncnc2c1ncn2Cc1ccccc1F [BW-A78U] | 14 | 4 | 2.5 | > 500 | > 1000 | 0.2 | 5 | 1.7 |  |
| O=C1NC(=O)C(c2ccccc2)(c2ccccc2)N1 [PHENYTOIN] | 22 | 1.8 |  |  |  | 4 | 9 | 10 | 20 |
